Source: publication PMC7937321 (Genes and Environment, 2021)

How the values were obtained:
[1] = system: human lymphoblastoid TK6 cells, thymidine kinase gene; test: TK gene mutation assay (TK6 assay, OECD TG490)
TK6 cells = test: Cytotoxicity in the TK6 assay (CE, RS, RSG, RTG)
Experimental: Briefly, test substances were dissolved in an appropriate solvent (DMSO or ethanol) and then serially diluted to prepare final concentrations. […] The 4 h and 24 h treatments were conducted by shaking and static exposures, respectively. After treatment with test substances, cells were centrifuged (1000 rpm, 5 min), supernatants were removed, and cells were washed with a serum-free medium or Hank’s Balanced Salt Solution. After centrifugation (1000 rpm, 5 min) to remove the supernatant, cells (2 × 10^7 cells) were dispersed in an RPMI medium containing 10% serum, and cell concentration was measured. Treated cells were cultured at 37 °C with 5% CO2 condition and used for TK6 assays. At that time, to calculate the cloning efficiency (CE) (Eq. 1), the cells were cultured in a 96-well microplate at a concentration of about 1.6 cells/well for 2 weeks.
CE, the cell colony formation rate, was calculated using Eq. 1 according to the Poisson distribution equation. EW was the number of wells without colonies, and TW was the total number of wells. N was the average number of cells per well (N = 1.6). 1 CE=−lnEW/TW/N
Additionally, CE was adjusted by the following calculation (Eq. 2) due to cell loss when exposure caused cytotoxicity. “The number of cells at the end of the treatment” was the number of cells obtained after centrifugation at the end of the treatment in the above-described exposure treatment of the test substance. The “cell number at the start of treatment” was 2 × 10^7. 2 AdjustedCE=CE×number of cellsatendof treatment/number of cellsatthe start of treatment
CE0 seeding, in which cells were seeded immediately after treatment, and CE3 seeding, in which cells were seeded 3 days after treatment, to examine cell viability in the TK6 assay described below. The relative cell viability RS0 (%) just after the treatment with the test substance was calculated from CE0, following Eq. 3. The survival rate of the negative control group was defined as 100%. 3 RS0%=adjusted CE0 of treatment culture/adjusted CE0 of solvent control×100
The TK6 assay is conducted between 20 and 10% RS0 as a maximum dose if cytotoxicity is observed. […] When the main TK6 assay was difficult to conduct under the condition of RS0 values from 20 to 10%, the test was conducted between 20 and 10% relative total growth (RTG), described later, as a maximum dose.
Besides RS0, relative suspension growth (RSG) and RTG as other cytotoxicity indices (Eq. 4) were used. When cells were cultured for 3 days after treatment with the test substance, suspension cell growth ratio 1 (SG1) was the growth ratio from day 0 to day 1 (cell concentration on day 1/cell concentration on day 0). The suspension cell growth ratio 2 (SG2) was the growth ratio from day 1 to day 2 (cell concentration on day 2/cell concentration on day 1). The RSG value was calculated by dividing the total SG value of the untreated group for 3 days by the total SG value of the treated group for the same 3 days (Eq. 4).
On the third day of culture, CE3 plates for determining plating efficiency and mutant frequency (MF) plates for mutation detection were prepared. CE3 plates were seeded in 96-well microplates at a concentration of about 1.6 cells/well.

[2] = TK6, short treatment -S9 mix, 250 μg/mL
[3] = TK6, short treatment -S9 mix, 500 μg/mL
[4] = TK6, short treatment -S9 mix, 1000 μg/mL
[5] = TK6, short treatment -S9 mix, 2000 μg/mL
[6] = dose 250 μg/mL, +S9 mix, short treatment
[7] = dose 250 μg/mL, -S9 mix, 24 h treatment
[8] = dose 500 μg/mL, +S9 mix, short treatment
[9] = dose 500 μg/mL, -S9 mix, 24 h treatment
[10] = dose 1000 μg/mL, +S9 mix, short treatment
[11] = dose 1000 μg/mL, -S9 mix, 24 h treatment
[12] = dose 2000 μg/mL, +S9 mix, short treatment
[13] = dose 2000 μg/mL, -S9 mix, 24 h treatment
[14] = dose 3.00 μg/mL, short treatment, +S9 mix
[15] = short treatment, +S9 mix, positive control, dose 10.00 μg/mL
[16] = Short treatment, +S9 mix, 3.00 μg/mL
[17] = Short treatment, +S9 mix, 3.00 μg/mL, Day 0
[18] = short treatment, +S9 mix, Day 0, positive control, dose 10.00 μg/mL

Cc1c(N)cccc1N [2,6-DAT]
%SG [1, 2]: 77.8%
Mut. freq. (×10-6) N-MF [1, 2]: 2.2 ×10-6
Mut. freq. (×10-6) S-MF [1, 2]: 7.9 ×10-6
Mut. freq. (×10-6) T-MF [1, 2]: 10.1 ×10-6
%SG [1, 3]: 86.8%
Mut. freq. (×10-6) N-MF [1, 3]: 0.9 ×10-6
Mut. freq. (×10-6) S-MF [1, 3]: 5.8 ×10-6
Mut. freq. (×10-6) T-MF [1, 3]: 6.7 ×10-6
%SG [1, 4]: 83.3%
Mut. freq. (×10-6) N-MF [1, 4]: 2.1 ×10-6
Mut. freq. (×10-6) S-MF [1, 4]: 10.3 ×10-6
Mut. freq. (×10-6) T-MF [1, 4]: 12.3 ×10-6
%SG [1, 5]: 78.9%
Mut. freq. (×10-6) N-MF [1, 5]: 1.9 ×10-6
Mut. freq. (×10-6) S-MF [1, 5]: 7.3 ×10-6
Mut. freq. (×10-6) T-MF [1, 5]: 9.2 ×10-6
%SG [1, 6]: 74.2%
Mut. freq. N-MF [1, 6]: 2.7 ×10-6
Mut. freq. S-MF [1, 6]: 7.7 ×10-6
Mut. freq. T-MF [1, 6]: 10.3 ×10-6
%SG [1, 7]: 76.3%
Mut. freq. N-MF [1, 7]: 3.4 ×10-6
Mut. freq. S-MF [1, 7]: 10.8 ×10-6
Mut. freq. T-MF [1, 7]: 14.2 ×10-6
%SG [1, 8]: 83.1%
Mut. freq. N-MF [1, 8]: 1.5 ×10-6
Mut. freq. S-MF [1, 8]: 7.6 ×10-6
Mut. freq. T-MF [1, 8]: 9.1 ×10-6
%SG [1, 9]: 79.9%
Mut. freq. N-MF [1, 9]: 3.0 ×10-6
Mut. freq. S-MF [1, 9]: 11.9 ×10-6
Mut. freq. T-MF [1, 9]: 14.9 ×10-6
%SG [1, 10]: 79.2%
Mut. freq. N-MF [1, 10]: 1.8 ×10-6
Mut. freq. S-MF [1, 10]: 7.0 ×10-6
Mut. freq. T-MF [1, 10]: 8.9 ×10-6
%SG [1, 11]: 87.5%
Mut. freq. N-MF [1, 11]: 3.4 ×10-6
Mut. freq. S-MF [1, 11]: 24.1 ×10-6
Mut. freq. T-MF [1, 11]: 27.5 ×10-6
%SG [1, 12]: 80.8%
Mut. freq. N-MF [1, 12]: 3.4 ×10-6
Mut. freq. S-MF [1, 12]: 14.5 ×10-6
Mut. freq. T-MF [1, 12]: 17.9 ×10-6
%SG [1, 13]: 84.3%
Mut. freq. N-MF [1, 13]: 3.4 ×10-6
Mut. freq. S-MF [1, 13]: 18.1 ×10-6
Mut. freq. T-MF [1, 13]: 21.4 ×10-6
Adjusted CE0(%) (TK6 cells; [2]): 52.1%
CE0 (%), cell viability on Day 0 (TK6 cells; [2]): 53.2%
CE3 (%), cell viability on Day 3 (TK6 cells; [2]): 116.0%
RS0 (%) (TK6 cells; [2]): 75.5%
RSG (TK6 cells; [2]): 0.717
CE3 (TK6 cells; TK6, short treatment -S9 mix, 250 μg/mL, as fraction): 1.160
Adjusted CE0(%) (TK6 cells; [3]): 49.9%
CE0 (%), cell viability on Day 0 (TK6 cells; [3]): 48.8%
CE3 (%), cell viability on Day 3 (TK6 cells; [3]): 104.6%
RS0 (%) (TK6 cells; [3]): 72.4%
RSG (TK6 cells; [3]): 0.788
CE3 (TK6 cells; TK6, short treatment -S9 mix, 500 μg/mL, as fraction): 1.046
Adjusted CE0(%) (TK6 cells; [4]): 40.8%
CE0 (%), cell viability on Day 0 (TK6 cells; [4]): 40.8%
CE3 (%), cell viability on Day 3 (TK6 cells; [4]): 92.1%
RS0 (%) (TK6 cells; [4]): 59.2%
RSG (TK6 cells; [4]): 0.679
CE3 (TK6 cells; TK6, short treatment -S9 mix, 1000 μg/mL, as fraction): 0.921
Adjusted CE0(%) (TK6 cells; [5]): 26.2%
CE0 (%), cell viability on Day 0 (TK6 cells; [5]): 28.3%
CE3 (%), cell viability on Day 3 (TK6 cells; [5]): 112.0%
RS0 (%) (TK6 cells; [5]): 38.0%
RSG (TK6 cells; [5]): 0.616
CE3 (TK6 cells; TK6, short treatment -S9 mix, 2000 μg/mL, as fraction): 1.120
Adjusted CE0 (TK6 cells; [6]): 75.0%
CE0 (cell viability on Day 0) (TK6 cells; [6]): 72.7%
CE3 (cell viability on Day 3) (TK6 cells; [6]): 81.6%
RS0 (TK6 cells; [6]): 80.9%
RSG (TK6 cells; [6]): 0.721
CE3 (TK6 cells; dose 250 μg/mL, +S9 mix, short treatment, as fraction): 0.816
Adjusted CE0 (TK6 cells; [7]): 51.3%
CE3 (cell viability on Day 3) (TK6 cells; [7]): 95.0%
RS0 (TK6 cells; [7]): 57.2%
RSG (TK6 cells; [7]): 0.982
CE3 (TK6 cells; dose 250 μg/mL, -S9 mix, 24 h treatment, as fraction): 0.950
Adjusted CE0 (TK6 cells; [8]): 70.6%
CE0 (cell viability on Day 0) (TK6 cells; [8]): 68.7%
CE3 (cell viability on Day 3) (TK6 cells; [8]): 86.6%
RS0 (TK6 cells; [8]): 76.2%
RSG (TK6 cells; [8]): 0.855
CE3 (TK6 cells; dose 500 μg/mL, +S9 mix, short treatment, as fraction): 0.866
Adjusted CE0 (TK6 cells; [9]): 25.3%
CE0 (cell viability on Day 0) (TK6 cells; [9]): 36.0%
RS0 (TK6 cells; [9]): 28.1%
RSG (TK6 cells; [9]): 0.472
CE3 (TK6 cells; dose 500 μg/mL, -S9 mix, 24 h treatment, as fraction): 1.160
Adjusted CE0 (TK6 cells; [10]): 45.8%
CE0 (cell viability on Day 0) (TK6 cells; [10]): 43.3%
CE3 (cell viability on Day 3) (TK6 cells; [10]): 95.0%
RS0 (TK6 cells; [10]): 49.5%
RSG (TK6 cells; [10]): 0.544
CE3 (TK6 cells; dose 1000 μg/mL, +S9 mix, short treatment, as fraction): 0.950
Adjusted CE0 (TK6 cells; [11]): 25.1%
CE3 (cell viability on Day 3) (TK6 cells; [11]): 101.2%
RS0 (TK6 cells; [11]): 28.0%
RSG (TK6 cells; [11]): 0.453
CE3 (TK6 cells; dose 1000 μg/mL, -S9 mix, 24 h treatment, as fraction): 1.012
Adjusted CE0 (TK6 cells; [12]): 31.8%
CE0 (cell viability on Day 0) (TK6 cells; [12]): 31.5%
CE3 (cell viability on Day 3) (TK6 cells; [12]): 84.1%
RS0 (TK6 cells; [12]): 34.3%
RSG (TK6 cells; [12]): 0.246
CE3 (TK6 cells; dose 2000 μg/mL, +S9 mix, short treatment, as fraction): 0.841
Adjusted CE0 (TK6 cells; [13]): 20.5%
CE0 (cell viability on Day 0) (TK6 cells; [13]): 25.3%
CE3 (cell viability on Day 3) (TK6 cells; [13]): 108.2%
RS0 (TK6 cells; [13]): 22.8%
RSG (TK6 cells; [13]): 0.237
CE3 (TK6 cells; dose 2000 μg/mL, -S9 mix, 24 h treatment, as fraction): 1.082

O=P1(N(CCCl)CCCl)NCCCO1 (centres unmarked) [CP, Cyclophosphamide, reference compound]
%SG [1, 14]: 75.7%
Mut. freq. (×10-6) N-MF [1, 14]: 14.0 ×10-6
Mut. freq. (×10-6) S-MF [1, 14]: 43.8 ×10-6
Mut. freq. (×10-6) T-MF [1, 14]: 57.8 ×10-6
mutant frequency of the concurrent positive control (mean) ([1]; short treatment with S9 mix, 2.5–3 μg/mL): 28.6 × 10^− 6
%SG [1, 15]: 50.8%
Mut. freq. N-MF [1, 15]: 10.0 ×10-6
Mut. freq. S-MF [1, 15]: 10.3 ×10-6
Mut. freq. T-MF [1, 15]: 20.3 ×10-6
Daily cell growth Day 1×2×3 (TK6 cells; [16]): 7.35
RSG (TK6 cells; [16]): 0.385
Adjusted CE0 (TK6 cells; [17]): 34.5%
CE0 (TK6 cells; [17]): 36.0%
RS0 (TK6 cells; [17]): 43.1%
CE3 (TK6 cells; Short treatment, +S9 mix, 3.00 μg/mL, Day 3): 66.7%
CE3 (TK6 cells; [14]): 0.667
RS (TK6 cells; [14]): 43.1
Adjusted CE0 (TK6 cells; [18]): 11.6%
CE0 (TK6 cells; [18]): 10.6%
RS0 (TK6 cells; [18]): 12.2%
CE3 (TK6 cells; short treatment, +S9 mix, Day 3, positive control, dose 10.00 μg/mL): 68.7%
CE3 (TK6 cells; short treatment, +S9 mix, as fraction, positive control, dose 10.00 μg/mL): 0.687
RSG (TK6 cells; [15]): 0.063
